Results published in patent publication US20170035011A1, “METHODS OF IMPROVING GERMINATION OF PLANT EMBRYOS” (WEYERHAEUSER NR COMPANY, priority 2015, published 2017).

Columns and labels:
loblolly pine embryos = assay: Germination and germinant organ lengths of resulting embryos, Example 2; assay type: in vivo
Source text: As used herein, the term “germination” refers to a physiological process that results in the elongation and growth of a plant embryo organs (root, hypocotyls, cotyledons) and initiation of leaves (epicotyl by the shoot apex located at the base of the cotyledons) after 1 week in the dark followed by 6 weeks in a light room at room temperature.
As used herein, the term “category 1” germination is defined by presence of a minimum of a 3 mm root, and a tuft of at least 5 epicotyl leaves, each approximately 5 mm long.
“Category 2” germination is defined as for category 1, but where epicotyls leaf presence is observed, but not meeting the 5 leaves by 5 mm length specification.
Several parameters may be measured to determine the quality of the germinants, such as root, hypocotyl, longest cotyledon leaf length, and epicotyls leaf length. […]
The responses analyzed for this report are the weekly growth, embryos per d-frame, category 1 germination, and for category 1+2: germination, germinants per d-frame, root length, the hypocotyl length, and the epicotyl length.
The proportion responses are analyzed using a generalized linear model with a logit link and binomial distribution after categorizing as a 0/1 response. The continuous responses were analyzed with a mixed linear model after taking the log transformation to account for increasing variability with higher means. […]

loblolly pine SE = assay: Development stage studies with palatinose in maltose and glucose media; assay type: cell-based; details: standard maltose and glucose media
Source text: In loblolly pine SE studies, palatinose was initially used as a non-metabolizable sugar for supplementing osmotic level. […] When used as a part of liquid multiplication media its effect depended on the sugar moieties it was associated with, and its ratio with those moieties. When paired with maltose alone, growth was largely or completely halted depending on sugar ratio, whereas when used with glucose, growth was like control (maltose only).

manufactured seed = assay: Root initiation with palatinose in synthetic gametophyte of manufactured seed; assay type: in vivo; details: palatinose from 0 to 40 g/l in 20 g/l increments; base sugar sucrose or glucose
Source text: The beneficial properties of palatinose are not limited to multiplication. The addition of palatinose to the synthetic gametophyte of manufactured seed has benefits for root initiation. […] This is true when the base sugar was sucrose or glucose.

Compound | category 1 germination percentage (loblolly pine embryos; combining the outcomes of 3, 5, and 7 weeks of treatment) [%] | embryo formation (loblolly pine SE) | root presence (manufactured seed) | Category 1 germination (loblolly pine embryos; Table 7 comparison)
O=C(CO)[C@@H](O)[C@H](O)[C@H](O)CO[C@H]1O[C@H](CO)[C@@H](O)[C@H](O)[C@H]1O [palatinose, 6-O-α-d-glucopyranosyl-D-fructose] | 9.1 | inhibited embryo formation | root presence improved | 
OC[C@H]1O[C@H](O[C@H]2O[C@H](CO)[C@@H](O)[C@H](O)[C@H]2O)[C@H](O)[C@@H](O)[C@@H]1O [trehalose] |  |  |  | no evidence that adding trehalose had an effect
